# Experimental data taken from ChEMBL document CHEMBL1909046, “DrugMatrix in vitro pharmacology data”.
# Experiments:
# [1] = target: Cytochrome P450 2D6 (Homo sapiens, UniProt P10635); note: in other assays of this panel Not Active means under 50% inhibition at 10 µM
# [2] = target: T1, Alpha-1A adrenergic receptor (Rattus norvegicus, UniProt P43140); assay: DRUGMATRIX: Alpha-1A adrenergic receptor radioligand binding (ligand: prazosin); format: cell membranes, Wistar, Submaxillary gland, Membrane; conditions: Not Active = under 50% inhibition at 10 µM
# T1 sequence (P43140 whole entry): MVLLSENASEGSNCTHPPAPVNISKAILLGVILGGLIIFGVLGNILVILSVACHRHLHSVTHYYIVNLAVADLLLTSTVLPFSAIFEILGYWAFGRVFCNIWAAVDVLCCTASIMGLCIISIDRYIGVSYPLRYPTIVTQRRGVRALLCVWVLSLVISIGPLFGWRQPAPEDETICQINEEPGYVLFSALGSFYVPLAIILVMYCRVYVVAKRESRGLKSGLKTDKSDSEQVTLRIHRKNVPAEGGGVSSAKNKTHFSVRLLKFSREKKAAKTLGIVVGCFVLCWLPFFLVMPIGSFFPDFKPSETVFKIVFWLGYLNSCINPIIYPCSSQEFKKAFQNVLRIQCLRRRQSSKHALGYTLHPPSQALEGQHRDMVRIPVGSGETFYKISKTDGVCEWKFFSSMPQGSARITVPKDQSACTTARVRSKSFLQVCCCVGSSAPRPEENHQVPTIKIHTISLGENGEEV
# [3] = target: Vasopressin V1a receptor (Homo sapiens, UniProt P37288); format: cell membranes, Membrane; conditions: hek293; note: in other assays of this panel Not Active means under 50% inhibition at 10 µM
# [4] = target: T2, Type-2 angiotensin II receptor (Homo sapiens, UniProt P50052); format: cell-based; conditions: cho-k1; note: in other assays of this panel Not Active means under 50% inhibition at 10 µM
# T2 sequence (P50052 whole entry): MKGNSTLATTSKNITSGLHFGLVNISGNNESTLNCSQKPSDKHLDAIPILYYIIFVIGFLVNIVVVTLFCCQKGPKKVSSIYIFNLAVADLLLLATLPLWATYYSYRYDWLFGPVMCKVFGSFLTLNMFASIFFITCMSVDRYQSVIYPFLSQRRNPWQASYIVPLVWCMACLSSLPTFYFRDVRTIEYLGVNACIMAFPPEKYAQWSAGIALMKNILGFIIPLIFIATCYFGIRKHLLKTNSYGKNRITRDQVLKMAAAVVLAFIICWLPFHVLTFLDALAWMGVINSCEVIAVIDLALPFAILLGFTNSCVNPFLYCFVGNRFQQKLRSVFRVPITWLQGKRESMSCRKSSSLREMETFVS
# [5] = target: T3, Androgen receptor (Rattus norvegicus, UniProt P15207); note: in other assays of this panel Not Active means under 50% inhibition at 10 µM
# T3 sequence (P15207 whole entry): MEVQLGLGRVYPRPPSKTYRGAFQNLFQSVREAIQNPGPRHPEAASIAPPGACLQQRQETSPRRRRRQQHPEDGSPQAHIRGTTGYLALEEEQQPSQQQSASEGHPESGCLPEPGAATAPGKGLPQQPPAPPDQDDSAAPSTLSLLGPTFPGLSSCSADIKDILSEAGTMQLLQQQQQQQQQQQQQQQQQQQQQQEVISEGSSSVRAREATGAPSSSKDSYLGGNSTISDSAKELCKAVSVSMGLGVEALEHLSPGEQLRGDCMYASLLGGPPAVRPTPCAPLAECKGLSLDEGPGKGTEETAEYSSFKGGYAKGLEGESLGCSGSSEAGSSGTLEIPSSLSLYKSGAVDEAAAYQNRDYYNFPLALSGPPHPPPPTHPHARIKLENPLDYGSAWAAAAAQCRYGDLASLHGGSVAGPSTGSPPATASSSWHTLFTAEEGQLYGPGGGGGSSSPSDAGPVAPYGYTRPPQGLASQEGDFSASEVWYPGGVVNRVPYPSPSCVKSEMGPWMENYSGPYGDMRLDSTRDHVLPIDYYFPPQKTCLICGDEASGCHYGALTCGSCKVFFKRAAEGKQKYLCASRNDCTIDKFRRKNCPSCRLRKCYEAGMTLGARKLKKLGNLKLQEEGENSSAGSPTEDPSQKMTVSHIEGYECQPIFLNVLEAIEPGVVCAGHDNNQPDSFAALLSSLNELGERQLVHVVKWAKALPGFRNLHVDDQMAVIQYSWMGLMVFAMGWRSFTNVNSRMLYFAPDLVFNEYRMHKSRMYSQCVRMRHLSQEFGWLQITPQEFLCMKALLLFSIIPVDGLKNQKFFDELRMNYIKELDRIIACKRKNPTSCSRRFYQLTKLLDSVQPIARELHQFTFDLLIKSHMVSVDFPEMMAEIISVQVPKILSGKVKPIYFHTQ
# [6] = target: T4, 5-hydroxytryptamine receptor 2C (Homo sapiens, UniProt P28335); assay: DRUGMATRIX: Serotonin (5-Hydroxytryptamine) 5-HT2C radioligand binding (ligand: [3H] Mesulergine); format: cell membranes, CHO-K1, Membrane; conditions: Not Active = under 50% inhibition at 10 µM
# T4 sequence (P28335 whole entry): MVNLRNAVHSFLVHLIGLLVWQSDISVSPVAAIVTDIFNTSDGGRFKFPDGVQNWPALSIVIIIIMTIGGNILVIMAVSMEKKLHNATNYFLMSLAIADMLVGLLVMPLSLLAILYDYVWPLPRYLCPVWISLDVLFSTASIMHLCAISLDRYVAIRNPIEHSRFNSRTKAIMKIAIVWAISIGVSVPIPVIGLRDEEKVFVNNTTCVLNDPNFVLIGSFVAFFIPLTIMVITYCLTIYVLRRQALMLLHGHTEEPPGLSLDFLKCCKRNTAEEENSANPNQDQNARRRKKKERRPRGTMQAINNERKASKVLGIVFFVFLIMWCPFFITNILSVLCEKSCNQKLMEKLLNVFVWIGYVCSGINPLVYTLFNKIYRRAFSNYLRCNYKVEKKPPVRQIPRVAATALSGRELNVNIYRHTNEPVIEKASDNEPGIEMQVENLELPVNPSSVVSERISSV
# [7] = DRUGMATRIX: Phosphodiesterase PDE3 enzyme inhibition (substrate: [3H]cAMP + cAMP); format: tissue-based, Homo sapiens; conditions: platelet; Not Active = under 50% inhibition at 10 µM
# Chain of Vasopressin V1a receptor (P37288 whole entry): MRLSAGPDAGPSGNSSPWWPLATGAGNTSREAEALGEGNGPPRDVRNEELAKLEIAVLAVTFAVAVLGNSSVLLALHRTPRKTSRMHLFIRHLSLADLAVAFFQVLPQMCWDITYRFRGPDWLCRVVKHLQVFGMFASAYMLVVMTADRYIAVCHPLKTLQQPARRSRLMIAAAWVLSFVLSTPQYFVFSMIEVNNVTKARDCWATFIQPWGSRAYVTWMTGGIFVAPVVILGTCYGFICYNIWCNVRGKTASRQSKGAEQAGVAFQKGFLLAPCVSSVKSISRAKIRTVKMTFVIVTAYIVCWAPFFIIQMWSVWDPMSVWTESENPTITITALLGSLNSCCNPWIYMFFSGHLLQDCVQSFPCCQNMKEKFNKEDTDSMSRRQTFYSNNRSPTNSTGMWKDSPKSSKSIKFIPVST
# Chain of Cytochrome P450 2D6 (P10635 whole entry): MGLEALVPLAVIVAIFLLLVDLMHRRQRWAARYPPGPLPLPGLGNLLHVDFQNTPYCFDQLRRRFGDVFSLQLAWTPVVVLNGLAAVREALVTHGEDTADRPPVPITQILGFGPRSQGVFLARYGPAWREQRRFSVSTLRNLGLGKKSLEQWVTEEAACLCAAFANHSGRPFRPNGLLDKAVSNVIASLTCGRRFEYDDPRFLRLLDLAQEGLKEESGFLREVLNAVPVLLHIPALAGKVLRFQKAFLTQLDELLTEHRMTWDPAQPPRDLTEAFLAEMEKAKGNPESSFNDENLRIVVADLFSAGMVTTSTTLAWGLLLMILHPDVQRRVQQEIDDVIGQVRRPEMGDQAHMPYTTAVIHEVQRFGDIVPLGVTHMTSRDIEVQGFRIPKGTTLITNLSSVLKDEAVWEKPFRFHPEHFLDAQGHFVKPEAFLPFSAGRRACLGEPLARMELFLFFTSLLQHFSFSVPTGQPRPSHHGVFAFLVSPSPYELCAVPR
Compound,IC50 [1] [nM],IC50 ([2]; read-out: IC50) [nM],Ki ([2]; read-out: Ki) [nM],IC50 [3],IC50 [4],IC50 [5],IC50 [2],IC50 ([6]; read-out: IC50) [nM],Ki ([6]; read-out: Ki) [nM],IC50 [7],Ki [7],IC50 ([6]; cho-k1),Ki [5],Ki [2],Ki ([6]; cho-k1),Ki [3],Ki [4]
Clc1ccc(COC(Cn2ccnc2)c2ccc(Cl)cc2Cl)cc1 (centres undefined) [ECONAZOLE],400,21200,8570,Not Active,Not Active,,,,,,,,,,,,
CCN(CC)CCOc1ccc(/C(=C(/Cl)c2ccccc2)c2ccccc2)cc1 [ENCLOMIPHENE],10000,,,Not Active,Not Active,Not Active,Not Active,1270,666,,,,,,,,
N#Cc1ccc(C(c2ccc(C#N)cc2)n2cncn2)cc1 [LETROZOLE],,,,Not Active,Not Active,Not Active,Not Active,,,Not Active,Not Active,Not Active,,,,,
CCN1CCC[C@H]1CNC(=O)c1cc(S(N)(=O)=O)ccc1OC [LEVOSULPIRIDE],,,,Not Active,Not Active,Not Active,Not Active,,,Not Active,Not Active,Not Active,,,,,
CCN(CC)CC(=O)Nc1c(C)cccc1C [LIDOCAINE],,,,Not Active,Not Active,Not Active,Not Active,,,Not Active,Not Active,Not Active,,,,,
O=C1Nc2ccc(Cl)cc2C(c2ccccc2Cl)=NC1O (centres undefined) [LORAZEPAM],,,,Not Active,Not Active,Not Active,Not Active,,,Not Active,Not Active,Not Active,,,,,
CO[C@@H]1[C@@H](OC)[C@H](C)[C@@](O)(CC(=O)O)O[C@H]1[C@H](C)[C@H]1O[C@@]2(CC[C@@](C)([C@H]3CC[C@@](C)([C@@H]4O[C@@H]([C@H]5O[C@](C)(O)[C@H](C)C[C@@H]5C)C[C@@H]4O[C@@H]4C[C@H](OC)[C@@H](OC)[C@H](C)O4)O3)O2)C[C@H](O)[C@H]1C [MADURAMICIN ACID],1000,3340,1350,Not Active,Not Active,,,34,18,Not Active,Not Active,,,,,,
COc1c2occc2cc2ccc(=O)oc12 [METHOXSALEN],,,,Not Active,Not Active,Not Active,Not Active,,,Not Active,Not Active,Not Active,,,,,
Nc1cc(N2CCCCC2)nc(N)[n+]1[O-] [MINOXIDIL],,,,Not Active,Not Active,Not Active,Not Active,,,Not Active,Not Active,Not Active,,,,,
CCCCOc1cc(CC2CNC(=O)N2)ccc1OC (centres undefined) [RO-201724],,,,Not Active,Not Active,Not Active,Not Active,,,Not Active,Not Active,Not Active,,,,,
NC(=O)N1C(=O)/C(=C(\O)c2cccs2)c2cc(Cl)ccc21 [TENIDAP],,,,Not Active,Not Active,Not Active,Not Active,,,Not Active,Not Active,Not Active,,,,,
CN(C/C=C/C#CC(C)(C)C)Cc1cccc2ccccc12 [TERBINAFINE],200,,,Not Active,Not Active,,Not Active,,,Not Active,Not Active,Not Active,,,,,
Clc1ccccc1CN1CCc2sccc2C1 [TICLOPIDINE],,,,Not Active,Not Active,Not Active,Not Active,,,Not Active,Not Active,Not Active,,,,,
NC1CCN(c2nc3c(cc2F)c(=O)c(C(=O)O)cn3-c2ccc(F)cc2F)C1 (centres undefined) [TOSUFLOXACIN],,,,Not Active,Not Active,Not Active,Not Active,,,Not Active,Not Active,Not Active,,,,,
CC(c1cc2ccccc2s1)N(O)C(N)=O (centres undefined) [ZILEUTON],,,,Not Active,Not Active,Not Active,Not Active,,,Not Active,Not Active,Not Active,,,,,
MANGANESE CHLORIDE ANHYDROUS,,,,Not Active,Not Active,Not Active,Not Active,,,Not Active,Not Active,Not Active,Not Active,Not Active,Not Active,Not Active,Not Active
SODIUM ORTHOVANAD,,,,Not Active,Not Active,Not Active,Not Active,,,Not Active,Not Active,Not Active,Not Active,Not Active,Not Active,Not Active,Not Active
